{
  "source": "patent US8921362B2",
  "about": "“6,7-dialkoxy quinazoline derivatives and methods of treating drug resistant and other tumors” (Natco Pharma Limited, priority 2008, dated 2014)",
  "experiment_in_all_cases": "KinomeScan",
  "format_in_all_cases": "binding",
  "details_in_all_cases": "read-out: % Ctrl @ 10000 nM",
  "key": {"FGFR1": {"target": "T1, FGFR1 (Homo sapiens, UniProt P11362)", "T1 construct": "host or cells: T7 phage in E. coli host derived from BL21", "T1 sequence (P11362 22-822)": "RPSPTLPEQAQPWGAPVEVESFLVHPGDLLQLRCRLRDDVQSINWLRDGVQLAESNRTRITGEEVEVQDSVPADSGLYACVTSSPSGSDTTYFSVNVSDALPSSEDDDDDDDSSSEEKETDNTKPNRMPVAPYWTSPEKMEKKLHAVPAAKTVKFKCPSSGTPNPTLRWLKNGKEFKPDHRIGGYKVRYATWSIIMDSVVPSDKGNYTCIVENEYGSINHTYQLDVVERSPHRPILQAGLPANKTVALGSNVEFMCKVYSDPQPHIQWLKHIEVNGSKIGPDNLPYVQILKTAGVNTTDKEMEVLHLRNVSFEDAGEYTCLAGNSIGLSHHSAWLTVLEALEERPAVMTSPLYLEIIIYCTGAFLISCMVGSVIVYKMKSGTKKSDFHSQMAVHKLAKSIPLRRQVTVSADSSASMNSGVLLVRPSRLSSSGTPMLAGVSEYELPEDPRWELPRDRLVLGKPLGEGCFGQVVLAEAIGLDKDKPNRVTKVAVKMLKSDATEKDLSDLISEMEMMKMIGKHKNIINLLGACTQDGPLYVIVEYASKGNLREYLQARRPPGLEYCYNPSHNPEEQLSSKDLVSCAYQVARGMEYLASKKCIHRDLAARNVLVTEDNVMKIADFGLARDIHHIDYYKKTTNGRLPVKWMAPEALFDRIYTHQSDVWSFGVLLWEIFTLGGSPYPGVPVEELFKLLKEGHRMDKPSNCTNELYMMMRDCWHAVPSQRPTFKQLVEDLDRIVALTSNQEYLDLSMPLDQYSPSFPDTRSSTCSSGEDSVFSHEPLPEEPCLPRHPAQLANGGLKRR", "how_it_was_run": "(§1)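 In this phage-display binding screen, compound competes with immobilized ligand for the kinase fusion, and bead-bound phage, eluted after washing, is titered by qPCR.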"}, "FLT1": {"target": "T2, FLT1 (Homo sapiens, UniProt P17948)", "T2 construct": "host or cells: T7 phage in E. coli host derived from BL21", "how_it_was_run": "as §1"}, "BRSK1": {"target": "T3, BRSK1 (Homo sapiens, UniProt Q8TDC3)", "T3 construct": "host or cells: E. coli host derived from BL21", "how_it_was_run": "as §1"}, "SRC": {"target": "T4, SRC (Homo sapiens, UniProt P12931)", "T4 construct": "host or cells: T7 phage grown in E. coli (BL21-derived)", "how_it_was_run": "as §1"}, "FYN": {"target": "T5, FYN (Homo sapiens, UniProt P06241)", "T5 construct": "host or cells: T7 phage in E. coli host derived from BL21", "how_it_was_run": "as §1"}, "MARK3": {"target": "T6, MARK3 (Homo sapiens, UniProt P27448)", "T6 construct": "host or cells: E. coli host derived from the BL21 strain, infected with T7 phage", "how_it_was_run": "as §1"}, "PIP5K2B": {"target": "T7, PIP5K2B (Homo sapiens, UniProt P78356)", "T7 construct": "host or cells: T7 phage in E. coli host derived from BL21", "how_it_was_run": "as §1"}, "PCTK1": {"target": "T8, PCTK1 (Homo sapiens, UniProt Q00536)", "T8 construct": "host or cells: E. coli host derived from BL21, infected with T7 phage", "how_it_was_run": "as §1"}, "CSNK1E": {"target": "T9, CSNK1E (Homo sapiens, UniProt P49674)", "T9 construct": "host or cells: T7 phage in E. coli host derived from BL21", "how_it_was_run": "as §1"}, "PDPK1": {"target": "T10, PDPK1 (Homo sapiens, UniProt O15530)", "T10 construct": "host or cells: E. coli host derived from BL21, infected with T7 phage", "how_it_was_run": "as §1"}, "AURKB": {"target": "T11, AURKB (Homo sapiens, UniProt Q96GD4)", "T11 construct": "host or cells: E. coli host derived from BL21", "how_it_was_run": "as §1"}, "KIT": {"target": "T12, KIT (Homo sapiens, UniProt P10721)", "T12 construct": "host or cells: T7 phage grown in E. coli host derived from BL21", "how_it_was_run": "as §1"}, "FER": {"target": "T13, FER (Homo sapiens, UniProt P16591)", "T13 construct": "host or cells: T7 phage in E. coli host derived from BL21", "how_it_was_run": "as §1"}, "BRAF": {"target": "T14, BRAF (Homo sapiens, UniProt P15056)", "T14 construct": "host or cells: E. coli host derived from BL21", "how_it_was_run": "as §1"}, "CSNK1G3": {"target": "T15, CSNK1G3 (Homo sapiens, UniProt Q9Y6M4)", "T15 construct": "purchased Ambit Biosciences Corp (KinomeScan); host or cells: T7 phage in E. coli host derived from BL21", "how_it_was_run": "as §1"}, "PIK3C2B": {"target": "T16, PIK3C2B (Homo sapiens, UniProt O00750)", "T16 construct": "host or cells: E. coli host derived from BL21, infected with T7 phage", "how_it_was_run": "as §1"}, "ERK1": {"target": "T17, ERK1 (Homo sapiens, UniProt P27361)", "T17 construct": "purchased Ambit Biosciences Corp; host or cells: T7 phage in E. coli host derived from BL21", "how_it_was_run": "as §1"}, "CLK2": {"target": "T18, CLK2 (Homo sapiens, UniProt P49760)", "T18 construct": "host or cells: T7 phage in E. coli host derived from BL21", "how_it_was_run": "as §1"}, "EPHA2": {"target": "T19, EPHA2 (Homo sapiens, UniProt P29317)", "T19 construct": "purchased Ambit Biosciences Corp; host or cells: T7 phage in E. coli host derived from BL21", "how_it_was_run": "as §1"}, "SYK": {"target": "T20, SYK (Homo sapiens, UniProt P43405)", "T20 construct": "host or cells: T7 phage grown in E. coli (BL21-derived)", "how_it_was_run": "as §1"}, "ANKK1": {"target": "T21, ANKK1 (Homo sapiens, UniProt Q8NFD2)", "T21 construct": "host or cells: E. coli (BL21-derived), T7 phage lysate", "how_it_was_run": "as §1"}, "RET(M918T)": {"target": "T22, RET(M918T) (Homo sapiens, UniProt P07949, M918T)", "T22 construct": "host or cells: E. coli host derived from BL21, T7 phage display", "how_it_was_run": "as §1"}, "PRKD2": {"target": "T23, PRKD2 (Homo sapiens, UniProt Q9BZL6)", "T23 construct": "host or cells: T7 phage in E. coli host derived from BL21", "how_it_was_run": "as §1"}, "[1]": {"target": "T24, RPS6KA4(Kin.Dom.-2-C-terminal) (Homo sapiens, UniProt O75676)", "T24 construct": "RPS6KA4(KIN.DOM.2); host or cells: E. coli host derived from BL21, T7 phage display", "how_it_was_run": "as §1"}, "PIK3CG": {"target": "T25, PIK3CG (Homo sapiens, UniProt P48736)", "T25 construct": "host or cells: T7 phage in E. coli host derived from BL21", "T25 sequence (P48736 whole entry)": "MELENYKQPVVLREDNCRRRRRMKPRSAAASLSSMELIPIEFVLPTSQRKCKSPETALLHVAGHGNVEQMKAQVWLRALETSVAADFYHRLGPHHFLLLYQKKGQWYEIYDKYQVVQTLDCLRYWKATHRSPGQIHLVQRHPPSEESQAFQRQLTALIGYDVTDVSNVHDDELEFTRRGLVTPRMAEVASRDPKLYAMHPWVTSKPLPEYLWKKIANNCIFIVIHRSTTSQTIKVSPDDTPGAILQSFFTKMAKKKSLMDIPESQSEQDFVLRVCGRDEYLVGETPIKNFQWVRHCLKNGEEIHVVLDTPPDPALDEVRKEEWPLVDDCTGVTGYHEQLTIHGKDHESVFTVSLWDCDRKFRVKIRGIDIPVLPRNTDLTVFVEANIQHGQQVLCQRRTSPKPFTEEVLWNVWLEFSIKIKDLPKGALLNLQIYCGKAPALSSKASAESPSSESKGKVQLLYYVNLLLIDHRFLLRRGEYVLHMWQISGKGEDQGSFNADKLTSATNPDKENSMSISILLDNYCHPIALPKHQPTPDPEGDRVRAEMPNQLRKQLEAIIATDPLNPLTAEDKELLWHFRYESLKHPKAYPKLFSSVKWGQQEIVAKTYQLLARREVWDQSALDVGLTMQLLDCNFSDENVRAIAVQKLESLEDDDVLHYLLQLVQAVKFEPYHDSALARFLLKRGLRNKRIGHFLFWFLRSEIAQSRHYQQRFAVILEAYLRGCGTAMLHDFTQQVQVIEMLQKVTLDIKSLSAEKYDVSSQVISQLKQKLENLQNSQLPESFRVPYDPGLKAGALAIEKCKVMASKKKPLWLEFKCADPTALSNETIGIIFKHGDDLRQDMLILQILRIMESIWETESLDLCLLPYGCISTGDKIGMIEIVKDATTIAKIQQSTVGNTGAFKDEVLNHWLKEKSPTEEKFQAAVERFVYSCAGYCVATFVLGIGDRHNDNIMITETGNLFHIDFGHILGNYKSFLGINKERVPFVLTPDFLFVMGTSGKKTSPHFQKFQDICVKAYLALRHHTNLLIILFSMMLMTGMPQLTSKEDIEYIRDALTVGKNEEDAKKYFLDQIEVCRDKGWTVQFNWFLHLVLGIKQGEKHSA", "how_it_was_run": "as §1"}, "PIM1": {"target": "T26, PIM1 (Homo sapiens, UniProt P11309)", "T26 construct": "host or cells: T7 phage in E. coli host derived from BL21", "how_it_was_run": "as §1"}, "MLK2": {"target": "T27, MLK2 (Homo sapiens, UniProt Q02779)", "T27 construct": "host or cells: T7 phage grown in E. coli host derived from BL21", "T27 sequence (Q02779 whole entry)": "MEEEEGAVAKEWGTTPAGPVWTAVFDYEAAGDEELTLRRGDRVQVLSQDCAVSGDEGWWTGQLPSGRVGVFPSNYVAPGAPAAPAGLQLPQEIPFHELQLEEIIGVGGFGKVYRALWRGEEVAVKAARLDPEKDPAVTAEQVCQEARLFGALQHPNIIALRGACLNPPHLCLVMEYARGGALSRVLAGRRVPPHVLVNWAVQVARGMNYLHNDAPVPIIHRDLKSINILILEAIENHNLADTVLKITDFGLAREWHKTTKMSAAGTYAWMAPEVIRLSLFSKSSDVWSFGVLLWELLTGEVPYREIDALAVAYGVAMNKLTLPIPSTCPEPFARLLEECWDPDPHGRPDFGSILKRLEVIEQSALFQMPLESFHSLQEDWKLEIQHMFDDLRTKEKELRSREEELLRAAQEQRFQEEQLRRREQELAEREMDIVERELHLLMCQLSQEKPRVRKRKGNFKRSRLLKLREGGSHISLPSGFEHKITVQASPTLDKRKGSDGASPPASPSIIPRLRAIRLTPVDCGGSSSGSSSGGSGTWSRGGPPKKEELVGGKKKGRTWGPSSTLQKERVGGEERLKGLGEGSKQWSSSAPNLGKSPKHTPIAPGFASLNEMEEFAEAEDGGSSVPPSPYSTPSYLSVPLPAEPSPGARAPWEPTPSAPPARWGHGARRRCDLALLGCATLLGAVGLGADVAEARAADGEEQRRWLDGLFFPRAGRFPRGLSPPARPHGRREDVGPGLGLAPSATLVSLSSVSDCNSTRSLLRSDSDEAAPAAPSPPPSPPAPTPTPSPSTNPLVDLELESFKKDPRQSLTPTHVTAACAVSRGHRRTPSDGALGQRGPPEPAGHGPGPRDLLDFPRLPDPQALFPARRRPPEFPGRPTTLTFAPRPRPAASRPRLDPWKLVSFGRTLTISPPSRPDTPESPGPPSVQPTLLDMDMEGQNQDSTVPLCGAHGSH", "how_it_was_run": "as §1"}, "CLK4": {"target": "T28, CLK4 (Homo sapiens, UniProt Q9HAZ1)", "T28 construct": "host or cells: T7 phage in E. coli host derived from BL21", "T28 sequence (Q9HAZ1 whole entry)": "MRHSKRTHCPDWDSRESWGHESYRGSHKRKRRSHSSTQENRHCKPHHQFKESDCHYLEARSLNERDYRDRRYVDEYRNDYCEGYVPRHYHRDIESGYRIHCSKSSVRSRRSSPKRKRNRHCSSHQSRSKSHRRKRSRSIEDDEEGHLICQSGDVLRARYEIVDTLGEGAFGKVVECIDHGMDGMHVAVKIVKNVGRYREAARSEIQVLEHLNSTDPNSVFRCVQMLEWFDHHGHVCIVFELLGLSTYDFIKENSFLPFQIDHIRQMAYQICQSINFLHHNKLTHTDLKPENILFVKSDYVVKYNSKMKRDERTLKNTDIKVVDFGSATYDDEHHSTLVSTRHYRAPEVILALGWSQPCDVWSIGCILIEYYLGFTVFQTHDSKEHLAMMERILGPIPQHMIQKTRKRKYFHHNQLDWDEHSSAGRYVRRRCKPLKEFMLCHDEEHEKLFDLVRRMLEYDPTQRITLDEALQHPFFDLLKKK", "how_it_was_run": "as §1"}, "NEK7": {"target": "T29, NEK7 (Homo sapiens, UniProt Q8TDX7)", "T29 construct": "host or cells: T7 phage grown in E. coli host derived from BL21", "how_it_was_run": "as §1"}, "BMPR1A": {"target": "T30, BMPR1A (Homo sapiens, UniProt P36894)", "T30 construct": "host or cells: E. coli host derived from BL21", "how_it_was_run": "as §1"}, "NLK": {"target": "T31, NLK (Homo sapiens, UniProt Q9UBE8)", "T31 construct": "host or cells: E. coli host derived from BL21, infected with T7 phage", "T31 sequence (Q9UBE8 whole entry)": "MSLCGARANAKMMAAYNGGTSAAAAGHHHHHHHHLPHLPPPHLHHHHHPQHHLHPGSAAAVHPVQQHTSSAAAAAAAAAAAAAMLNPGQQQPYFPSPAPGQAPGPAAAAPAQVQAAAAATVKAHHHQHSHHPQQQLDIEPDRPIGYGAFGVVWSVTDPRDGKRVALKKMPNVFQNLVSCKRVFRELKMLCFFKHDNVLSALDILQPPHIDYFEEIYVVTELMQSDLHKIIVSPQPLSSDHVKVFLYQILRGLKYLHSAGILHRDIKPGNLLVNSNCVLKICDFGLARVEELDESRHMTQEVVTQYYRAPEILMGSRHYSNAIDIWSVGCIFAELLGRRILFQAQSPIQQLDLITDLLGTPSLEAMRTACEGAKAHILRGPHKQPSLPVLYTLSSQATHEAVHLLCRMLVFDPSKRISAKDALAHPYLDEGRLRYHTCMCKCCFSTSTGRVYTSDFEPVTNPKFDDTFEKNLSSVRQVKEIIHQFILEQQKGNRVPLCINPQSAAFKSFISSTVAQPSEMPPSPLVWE", "how_it_was_run": "as §1"}, "DRAK1": {"target": "T32, DRAK1 (Homo sapiens, UniProt Q9UEE5)", "T32 construct": "purchased Ambit Biosciences Corp (KinomeScan); host or cells: T7 phage in E. coli host derived from BL21", "how_it_was_run": "as §1"}, "DAPK3": {"target": "T33, DAPK3 (Homo sapiens, UniProt O43293)", "T33 construct": "purchased Ambit Biosciences Corp (KinomeScan); host or cells: T7 phage in E. coli host derived from BL21", "T33 sequence (O43293 whole entry)": "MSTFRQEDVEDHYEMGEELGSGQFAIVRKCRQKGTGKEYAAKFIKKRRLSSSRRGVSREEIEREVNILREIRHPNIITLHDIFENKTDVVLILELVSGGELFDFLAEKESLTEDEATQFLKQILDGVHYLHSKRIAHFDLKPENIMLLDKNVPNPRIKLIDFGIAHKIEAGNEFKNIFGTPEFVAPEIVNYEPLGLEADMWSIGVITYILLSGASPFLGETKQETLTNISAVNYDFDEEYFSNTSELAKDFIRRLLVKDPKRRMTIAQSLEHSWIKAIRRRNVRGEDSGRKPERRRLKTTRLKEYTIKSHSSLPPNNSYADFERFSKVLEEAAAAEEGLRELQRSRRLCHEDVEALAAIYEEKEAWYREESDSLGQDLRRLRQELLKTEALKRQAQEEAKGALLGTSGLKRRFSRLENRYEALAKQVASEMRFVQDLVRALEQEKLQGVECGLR", "how_it_was_run": "as §1"}, "PAK1": {"target": "T34, PAK1 (Homo sapiens, UniProt Q13153)", "T34 construct": "host or cells: E. coli host derived from BL21, infected with T7 phage", "T34 sequence (Q13153 whole entry)": "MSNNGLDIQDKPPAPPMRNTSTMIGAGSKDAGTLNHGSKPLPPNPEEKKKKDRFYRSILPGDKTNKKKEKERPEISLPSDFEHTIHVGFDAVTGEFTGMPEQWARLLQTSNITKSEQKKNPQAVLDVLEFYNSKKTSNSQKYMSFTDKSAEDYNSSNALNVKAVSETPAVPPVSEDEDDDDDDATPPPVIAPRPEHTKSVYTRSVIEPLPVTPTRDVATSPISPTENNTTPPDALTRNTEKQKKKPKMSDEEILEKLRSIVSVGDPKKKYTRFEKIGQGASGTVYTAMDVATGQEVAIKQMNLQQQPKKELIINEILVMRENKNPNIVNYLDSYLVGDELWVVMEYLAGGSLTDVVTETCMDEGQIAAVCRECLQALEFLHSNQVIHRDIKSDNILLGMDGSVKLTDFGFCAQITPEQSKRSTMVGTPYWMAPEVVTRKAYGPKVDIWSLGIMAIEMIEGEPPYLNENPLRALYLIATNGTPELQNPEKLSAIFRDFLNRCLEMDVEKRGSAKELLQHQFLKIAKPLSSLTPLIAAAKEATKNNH", "how_it_was_run": "as §1"}},
  "data": [
    {"smiles": "C#Cc1cccc(Nc2ncnc3cc(OC)c(OCCCN4CCOCC4)cc23)c1", "note": "[NRC-2694, N-(3-ethynylphenyl)-7-methoxy-6-[3-(4-morpholinyl)propoxy]-4-quinazolinamine]", "values": [
      {"measurement": "remaining binding at 10 µM", "setting": "FGFR1", "result": 64, "unit": "%"},
      {"measurement": "remaining binding at 10 µM", "setting": "FLT1", "result": 64, "unit": "%"},
      {"measurement": "remaining binding at 10 µM", "setting": "BRSK1", "result": 53, "unit": "%"},
      {"measurement": "remaining binding at 10 µM", "setting": "SRC", "result": 24, "unit": "%"},
      {"measurement": "remaining binding at 10 µM", "setting": "FYN", "result": 41, "unit": "%"},
      {"measurement": "remaining binding at 10 µM", "setting": "MARK3", "result": 62, "unit": "%"},
      {"measurement": "remaining binding at 10 µM", "setting": "PIP5K2B", "result": 49, "unit": "%"},
      {"measurement": "remaining binding at 10 µM", "setting": "PCTK1", "result": 100, "unit": "%"},
      {"measurement": "remaining binding at 10 µM", "setting": "CSNK1E", "result": 9.6, "unit": "%"},
      {"measurement": "remaining binding at 10 µM", "setting": "PDPK1", "result": 94, "unit": "%"},
      {"measurement": "remaining binding at 10 µM", "setting": "AURKB", "result": 56, "unit": "%"},
      {"measurement": "remaining binding at 10 µM", "setting": "KIT", "result": 26, "unit": "%"},
      {"measurement": "remaining binding at 10 µM", "setting": "FER", "result": 94, "unit": "%"},
      {"measurement": "remaining binding at 10 µM", "setting": "BRAF", "result": 81, "unit": "%"},
      {"measurement": "remaining binding at 10 µM", "setting": "CSNK1G3", "result": 61, "unit": "%"},
      {"measurement": "remaining binding at 10 µM", "setting": "PIK3C2B", "result": 93, "unit": "%"},
      {"measurement": "remaining binding at 10 µM", "setting": "ERK1", "result": 98, "unit": "%"},
      {"measurement": "remaining binding at 10 µM", "setting": "CLK2", "result": 64, "unit": "%"},
      {"measurement": "remaining binding at 10 µM", "setting": "EPHA2", "result": 100, "unit": "%"},
      {"measurement": "remaining binding at 10 µM", "setting": "SYK", "result": 56, "unit": "%"},
      {"measurement": "remaining binding at 10 µM", "setting": "ANKK1", "result": 73, "unit": "%"},
      {"measurement": "remaining binding at 10 µM", "setting": "RET(M918T)", "result": 37, "unit": "%"},
      {"measurement": "remaining binding at 10 µM", "setting": "PRKD2", "result": 0.4, "unit": "%"},
      {"measurement": "remaining binding at 10 µM", "setting": "[1]", "result": 8.9, "unit": "%"},
      {"measurement": "remaining binding at 10 µM", "setting": "PIK3CG", "result": 78, "unit": "%"},
      {"measurement": "remaining binding at 10 µM", "setting": "PIM1", "result": 39, "unit": "%"},
      {"measurement": "remaining binding at 10 µM", "setting": "MLK2", "result": 83, "unit": "%"},
      {"measurement": "remaining binding at 10 µM", "setting": "CLK4", "result": 17, "unit": "%"},
      {"measurement": "remaining binding at 10 µM", "setting": "NEK7", "result": 78, "unit": "%"},
      {"measurement": "remaining binding at 10 µM", "setting": "BMPR1A", "result": 100, "unit": "%"},
      {"measurement": "remaining binding at 10 µM", "setting": "NLK", "result": 55, "unit": "%"},
      {"measurement": "remaining binding at 10 µM", "setting": "DRAK1", "result": 51, "unit": "%"},
      {"measurement": "remaining binding at 10 µM", "setting": "DAPK3", "result": 34, "unit": "%"},
      {"measurement": "remaining binding at 10 µM", "setting": "PAK1", "result": 74, "unit": "%"}
    ]}
  ]
}
